# Measured values reported in patent US20220323391A1, “COMBINATION OF A CHEMOTHERAPEUTIC AGENT AND ALPHA-LACTOGLUBULIN-OLEIC ACID COMPLEX FOR CANCER THERAPY” (HAMLET PHARMA AB, priority 2019, published 2022).
# Entries after “also recorded” stand apart in the source; their conditions may differ.
# System: MB49 mouse bladder carcinoma cells
# Experiment: murine MB49 bladder cancer model, intravesical treatment
# Format: in vivo
# Conditions: for Tumor growth / tumor progression (bladder weight, bladder size, tumor size) compared to sham treated mice: chemotherapeutic agent alone, 25 μg intravesical, days 3, 5, 7, 9 and 11; for Tumor growth / tumor recurrence at long-term follow up: single agent (alpha1-oleate 1.7 mM, or MMC or Epirubicin 25 μg), after 4 weeks
# Experimental: MB49 (RRID:CVCL_7076) cells were provided by Sara Mangsbo, Uppsala University, Sweden. […] C57BL/6 female mice were bred at the Department of Laboratory Medicine, Lund University and used at ages from 7 to 12 weeks. […] On day 0, the bladder was emptied and preconditioned by intravesical instillation of 100 μl of poly-L-lysine solution (0.1 mg/ml) through a soft polyethylene catheter (Clay Adams) with an outer diameter of 0.61 mm. After 30 minutes, MB49 mouse bladder carcinoma cells (2×10^5 cells in 50 μl media) were instilled. On days 3, 5, 7, 9 and 11, mice were randomly assigned and instilled to the alpha1-oleate (1.7 mM or 8.5 mM), chemotherapeutic drugs (MMC 25 μg, epirubicin 25 μg), combination of alpha1-oleate with chemotherapeutic agent or sham PBS treatment group. The catheter was left in place for about one minute, but as the mice remained under anesthesia, the time to voiding (dwelling time) of the substance was 2-3 hours. Groups of 5-6 mice for each treatment and control were sacrificed at day 12. Follow up groups of 5-8 mice were sacrificed at week 4 and week 8. Bladders were imaged and processed for histology or RNA extraction. Two independent experiments were performed for each condition. All experiments were performed with mycoplasma-free cells.
# Bladders were embedded in O.C.T. compound (VWR), and successive 5 μm sections were collected from the center of each bladder and placed on positively-charged microscope slides (Superfrost/Plus; Thermo Fisher Scientific). […] Images was captured using the AX10 microscope (Carl Zeiss). The tumor circumferences were measured for analysis of the tumor area using ImageJ software.
# The effects of alpha1-oleate and Mitomycin C were investigated in the murine MB49 bladder cancer model (for study design see FIG. 19A). Bladder cancer was established by intra-vesical instillation of MB49 cells and treatment was initiated on day 3. The treatment group received alpha1-oleate (1.7 mM or 8.5 mM), MMC (0.1 mL, 25 ug/dose) or a combination of alpha1-oleate (1.7 mM or 8.5 mM) with MMC (0.1 mL, 25 ug/dose). Instillations were performed on days 3, 5, 7, 9 and 11 and sham treated mice received PBS. Bladders were harvested at sacrifice on day 12 and tumor development was quantified as bladder weight, bladder size, tumor size and pathology score (FIG. 21c-f).
SMILES,"Therapeutic effect of Epirubicin alone relative to alpha1-oleate (Epirubicin 25 μg vs alpha1-oleate 1.7 mM, day 12, p=0.97)","Tumor growth / tumor progression (bladder weight, bladder size, tumor size) compared to sham treated mice (day 12)",Tumor growth / tumor recurrence at long-term follow up,"Tumor growth / tumor progression (bladder weight, bladder size, tumor size) compared to sham treated mice (day 12, listed as MMC)","Tumor growth / tumor progression (bladder weight, bladder size, tumor size) compared to sham treated mice (day 12, listed as mitomycin)",Tumor growth / tumor recurrence at long-term follow up (listed as MMC)
COc1cccc2c1C(=O)c1c(O)c3c(c(O)c1C2=O)C[C@@](O)(C(=O)CO)C[C@@H]3O[C@H]1C[C@H](N)[C@@H](O)[C@H](C)O1 [Epirubicin],comparable to that of alpha1-oleate,Tumor progression was delayed; also recorded: reduction in tumor size,Evidence of tumor recurrence; also recorded: showed an increase in tumor growth,–,–,–
CO[C@@]12[C@H](COC(N)=O)C3=C(C(=O)C(C)=C(N)C3=O)N1C[C@@H]1N[C@@H]12 [Mitomycin C],–,Tumor progression was delayed,–,reduction in tumor size,attenuated to a similar extent,Evidence of tumor recurrence; also recorded: showed an increase in tumor growth
